Calls of active or inactive are those of the source. No cut-off for these calls is given here.
Key:
KB = test: Cytotoxicity against human KB cells; assay type: functional, cell-based
P388 = test: Cytotoxicity against mouse P388 cells; assay type: functional, cell-based

SMILES	Activity (KB)	Activity (P388)
COC(=O)[C@@]12C[C@@H]3C[C@H]([C@H](C)O)[C@@H]1N(CC[C@]1(O)C2=Nc2ccc(OC)cc21)C3	inactive	inactive
CC[C@H]1C[C@H]2C[C@@]3(C(=O)OC)c4[nH]c5ccccc5c4CCN(C2=O)[C@@H]13	inactive	inactive
CC[C@H]1C[C@@H]2CN3CC[C@]4(O)C(=Nc5ccccc54)[C@](C(=O)OC)(C2)[C@H]13	inactive	inactive
CC[C@H]1C[C@@H]2CN3CC[C@]4(O)C(=Nc5ccc(OC)cc54)[C@](C(=O)OC)(C2)[C@H]13	inactive	inactive
COC(=O)[C@@]12C[C@@H]3C[C@H]([C@H](C)O)[C@@H]1N(CC[C@]1(O)C2=Nc2ccccc21)C3	inactive	inactive

Source: ChEMBL document CHEMBL1150758, “Heyneanine hydroxyindolenine, a new indole alkaloid from Ervatamia coronaria var. plena” (J Nat Prod, 1988)
